Laboratory results reported in patent publication US20110207694A1, “MAMMALIAN HYPOTHALAMIC NUTRIENT MODULATION OF GLUCOSE METABOLISM” (priority 2005, published 2011).
“Also recorded” adds a separate entry of the source.

Key:
conscious rats [1] = test: Intravenous lactate infusion with or without MBH oxamate: plasma TG and hepatic TG-VLDL production; format: in vivo, rat; settings: oxamate within the mediobasal hypothalamus prior to the i.v. lactate infusion
Description: (§1) Infusion protocols. The in vivo infusion experiments lasted a total of 360 min, and the experiments were carried out in rats that had their food removed ˜5 h before the experiments. Thus, at the time of the experiment, the rats are in post-absorptive state since their stomach should be completely emptied by 5 h fasting. […] This ICV glucose protocol physiologically elevate hypothalamic glucose concentration by ˜70% as previously described (Lam et al., 2005b) and is similar to that induced by a doubling of the circulating glucose levels (Lam et al., 2005b). During the ICV infusions, we monitored the plasma metabolite levels under pre-infused (0 min), basal (180-240 min) and pancreatic clamp (300-360 min) conditions. […] A basal insulin-pancreatic clamp was performed in the final 2 h (240-360 min) of the study as previously described (Lam et al., 2005b). In brief, a continuous infusion of insulin (1 mU/kg.min) and somatostatin (3 μg/kg.min) was administered, and a variable infusion of a 25% glucose solution was started and periodically adjusted to clamp and maintain the plasma glucose concentration at ˜8 mM. […] To examine the time-dependent effects of ICY glucose on plasma triglycerides, ICY (5 μl/h) 2 mM D-glucose or mannitol was administrated for 210 min and plasma triglyceride levels were monitored at 0, 20, 60, 120, 180, 210 min. […] Plasma triglycerides were monitored under basal, pancreatic clamp and tyloxapol-treated conditions. At the end of the infusion experiments, rats were anesthetized and tissue samples were freeze-clamped in situ with aluminum tongs pre-cooled in liquid nitrogen. All tissue samples were stored at −80° C. for subsequent analysis.
VLDL are decreased in the hours following an acute bout of exercise. […] To investigate the mechanism by which lactate lowers plasma TG levels, the rate of production of hepatic TG-enriched VLDL was measured.

conscious rats [2] = test: ICV glucose or lactate infusion with pancreatic basal insulin clamp: plasma glucose and liver glucose production; format: in vivo, rat; settings: for effect of ICV co-infused LDH inhibitor or KATP blocker on the effects of ICV glucose or lactate on plasma glucose and GP: ICV co-infusion
Description: We hypothesize that the hypothalamic sensing of glucose-derived pyruvate is a novel regulator of endogenous glucose production (GP). […] We propose that an increase in neuronal pyruvate levels is a hypothalamic signal of nutrient availability.
Long chain fatty acids in the brain decrease glucose production (GP) by the liver via activation of hypothalamus ATP-sensitive (KATP) channels. Here we tested whether (A) direct administration of glucose in the third cerebral ventricle can alter glucose production by the liver, and (B) whether this effect requires its metabolism in the TCA cycle.

hepatic VLDL secretion = test: Lipoprotein (VLDL) secretion studies with tyloxapol; NMR particle size; format: in vivo, rat
Description: Lipoproteins secretion and particles concentration and size measurements. Tyloxapol (600 mg/kg; ˜1 min) was intravenously injected to inhibit endogenous lipoprotein lipase. This high dose of tyloxapol ensured complete inhibition of triglyceride clearance during VLDL secretion studies. Plasma samples were taken every 30 min for triglycerides analysis and for lipoprotein profiling. Plasma VLDL particles concentration and size were determined by nuclear magnetic resonance spectroscopy (lipoprofile-II test) at Liposcience as previously described (Otvos et al., 1991; 1992). This NMR lipoprofile-II test is based on the assumption that each plasma lipoprotein particle of a particular size gives its own characteristic lipid NMR signal. The intensity of the signal is also in proportion to the concentration of the particle. The diameter range for large, medium and small VLDL is >60 nm, 35-60 nm, and 27-35 nm, respectively.
Selective hepatic branch vagotomy. The surgeries were performed as described (Lam et al., 2005c).
(§2) Treatment with SCD1 ASO. Five and two days before the lipoprotein secretion studies, rats received a single intra-peritoneal injection of either SCD1 or scrambled (SCR) ASO (100 mg/kg of body weight). […] In a separate set of studies, rats received intra-portal injection of either SCD1 or SCR ASO (40 mg/kg of body weight) (Gutierrez-Juarez et al., 2006) three days before the lipoprotein secretion studies.
Portal oleate infusion. Chronic portal catheter was implanted and 7 days were allowed for rat recovery. Oleic acid (45 mM; dissolved in 45% HBP) was infused at a rate of 40 μl/h for 2.5 h (1 h before the 90 min lipoprotein secretion studies). This dose enabled the reconstitution of hepatic oleyl-CoA levels back to normal during portal SCD1 ASO (FIG. 11c) or ICV glucose studies (FIG. 11d).

mediobasal hypothalamus = test: Intrahypothalamic (IH) infusion of glucose or DCA with pancreatic basal insulin clamp; format: in vivo, rat; settings: IH, with glucose
Description: FIG. 3 is a diagram of experimental protocols (Panel (a)) and graphs of results of those experiments utilizing intrahypothalamic (IH) infusions of glucose.
FIG. 4 is a schematic and graphs of experimental results showing the effect of dichloroacetate (DCA), an inhibitor of pyruvate dehydrogenase kinase, having the effect of activating pyruvate dehydrogenase (PDH). The schematic of Panel (a) illustrates the PDH activation effect of DCA in the context of glucose metabolism, the TCA cycle, and nervous system cells.
We have localized the effect of glucose on liver glucose production to the mediobasal hypothalamus. This was accomplished using bilateral intraparenchymal (rather than ICY) delivery of both glucose and the KATP blocker GLI.

male Sprague-Dawley rats = test: ICV infusion: plasma triglycerides and metabolites under basal and pancreatic clamp conditions; format: in vivo, rat
Description: Animal preparation. We studied 10-week-old male Sprague-Dawley rats. Rats underwent stereotaxic surgery to indwell single catheters in the third cerebral ventricle {intracerebroventricular (ICV)(Obici et al., 2001) or bilateral catheters into the mediobasal hypothalamus (Lam et al., 2005c). One week later, we placed indwelling catheters in the internal jugular vein and carotid artery for sampling and infusion during the in vivo experiments (Obici et al., 2001). Recovery from surgery was monitored by measuring daily food intake and weight gain for 4-5 days after surgery.
as §1
Biochemical analyses. Plasma glucose concentrations were measured by the glucose oxidase method (Glucose Analyzer II, Beckman Instruments, Inc., Fullerton, Calif.). […] FFA concentrations were determined by an enzyme assay in accordance with the manufacturer's specifications (Waco Pure Chemical Industries. Osaka. Japan). Plasma insulin concentrations (with rat and porcine insulin standards) were measured by radioimmunoassay (RIA). Plasma adiponectin concentrations were measured by RIA (Linco Inc., Austin, Tex., USA). Liver triglycerides were measured as described (Muse et al., 2004).
Calculations. Statistical analysis was done by unpaired Student's t test or analysis of variance as appropriate. Data are presented as means±SEM. All values were collapsed into a single value for each animal prior to the calculation of mean. The time period 180-240 min was averaged for the basal and the time period 300-360 min was averaged for the clamp conditions.

[3] = test system: Stearoyl-CoA Desaturase 1 (SCD1); test: Liver SCD1 activity, SCD1 mRNA and LCFA-CoA measurements; format: in vivo, rat
Description: as §2
Liver LCFA-CoA measurements. The liver was sampled and the LCFA-CoAs were extracted from the liver and measured by high-performance liquid chromatography (HPLC) as previously described (Lam et al., 2005c).
Stearoyl-CoA Desaturase 1 (SCD1) activity. CD1 activity assays were performed essentially as described (Cohen et al., 2002) using 1-[^14C]-stearoyl-CoA as a substrate. At the end of the reaction incubation long-chain acyl CoAs (LC Acyl-CoAs) were extracted and fractionated by reverse-phase HPLC as previously reported (Lam et al., 2005c). Chromatographically resolved stearoyl CoA (C18:0) and oleyl-CoA (C18:1) peaks were collected and counted in a β-scintillation counter. Protein was assayed by the bicinchoninic acid (BCA) method using a commercially available kit (Pierce Biotechnology, Rockford, Ill.) according to the manufacturer's instructions.
Gene expression. Stearoyl-CoA Desaturasel (SCD1) mRNA was measured by quantitative real-time PCR. Briefly, total RNA was extracted from either liver or fat tissue using the Trizol reagent (Invitrogen, Carlsbad, Calif.) according to the manufacturer instructions. cDNA was then synthesized from 2 μg of total RNA using the Superscript® III First-Strand kit TM? (Invitrogen, Carlsbad, Calif.). Samples of RNA in which the reverse transcriptase was omitted (no RT controls) were also included. The cDNA and no RT controls were diluted 1:20 with PCR grade water and 2 μl from each sample was used for PCR in a total volume of 20 μl. The FastStart DNA Master SYBR Green I kit (Roche Applied Science, Indianapolis, Ind.) and a LightCycler® 2 instrument (Roche Applied Science, Indianapolis, Ind.) were used in all experiments. Either 18S mRNA expression was routinely measured for normalization purposes. The primer sequences used were as follows: 5′-[…]-3′ and 5′-[…]-3′ for Scd1; and 5′-[…]-3′ and 5′-[…]-3′ for ribosomal 18S. The mRNA copy number was calculated from standard curves obtained using cloned target templates (plasmid DNA) of known copy number for each gene of interest.

conscious rats [4] = test: Circulating lactate infusion with central LDH inhibitor or KATP blocker: glucose kinetics during pancreatic clamps

NC(=O)C(=O)O [oxamate, reference compound]
hepatic TG-enriched VLDL production (conscious rats [1]): 0.056 ± 0.002 mM/min
plasma TG levels (conscious rats [1]): 0.44 ± 0.12 mM
GP (glucose production) (conscious rats [2]; ICV oxamate (50 mM) with ICV glucose): 11.9 ± 1.0 mg/kg/min
GP (glucose production) (conscious rats [2]; ICV oxamate with ICV lactate): 11.3 ± 0.6 mg/kg/min
plasma glucose (conscious rats [2]; ICV oxamate with ICV lactate): 144 ± 1 mg/dL

COc1ccc(Cl)cc1C(=O)NCCc1ccc(S(=O)(=O)NC(=O)NC2CCCCC2)cc1 [glibenclamide, reference compound]
effect of central co-infusion of inhibitor on suppression of VLDL-triglyceride secretion by ICV glucose (hepatic VLDL secretion; central co-infusion with glucose): abolished
effect of KATP blocker on the effects of IH glucose (mediobasal hypothalamus): prevented
effect of ICV co-infused inhibitor on the plasma triglyceride-lowering effects of ICV glucose or lactate (male Sprague-Dawley rats; ICV co-infusion (oxamate 50 mM, glibenclamide 100 μM)): negated the effects of both ICV glucose and lactate on plasma triglycerides; also recorded: abolishes the plasma triglyceride-lowering effects of glucose; also recorded: abolished the plasma triglyceride-lowering effects of lactate
plasma triglyceride levels, inhibitor per se (male Sprague-Dawley rats; ICV inhibitor alone): did not per se alter the levels of plasma triglycerides
effect of ICV co-infused inhibitor on the decrease of hepatic SCD1 mRNA and activity by ICV glucose ([3]; ICV co-infusion with glucose): abolished
effect of ICV co-infused LDH inhibitor or KATP blocker on the effects of ICV glucose or lactate on plasma glucose and GP (conscious rats [2]): inhibited
effect of ICV co-infused LDH inhibitor or KATP blocker on the effects of ICV glucose or lactate on plasma glucose and GP (conscious rats [2]; listed as GLI): inhibited
effect of ICV co-infused LDH inhibitor or KATP blocker on the effects of ICV glucose or lactate on plasma glucose and GP (conscious rats [2]; listed as sulfonylurea): completely abolished the effects of ICV glucose and lactate on plasma glucose and GP
glucose infusion rate to maintain euglycemia (conscious rats [4]; ICV inhibitor infused with IV lactate): decreased glucose infusion rate
glucose production (conscious rats [4]; central inhibitor infused with circulating lactate infusion): increase in glucose production

CCCCCCCC/C=C\CCCCCCCC(=O)O [oleic acid]
effect of portal oleic acid infusion on VLDL secretion (hepatic VLDL secretion; portal infusion during ICV glucose or SCD1 ASO): negates the effects of both central glucose and SCD1 deficiency on VLDL secretion; also recorded: sufficient to negate the effect of SCD1 deficiency on VLDL secretion
hepatic oleyl-CoA ([3]; portal infusion of oleic acid during ICV glucose or SCD1 deficiency): restores hepatic oleyl-CoA to control levels
